From patent publication US5208260A, “Vinyl Glycine derivatives for memory and learning enhancement or treatment of a cognitive disorder” (priority 1990, dated 1993)

Tests used:
[1] = biological target: T1, strychnine-insensitive Glycine receptor (Rattus norvegicus, UniProt P35439); assay: [3H]Glycine binding inhibition, Triton-washed rat forebrain synaptic plasma membranes (SPM); conditions: inhibition of 10 nM [3H]glycine binding, pH 7.4, 10 min at 2° C., nonspecific: 100 μM glycine, read-out: AFFINITY [3H]GLYCINE (Ki)
T1 construct: synaptic plasma membranes (SPM) prepared from rat forebrain; from tissue; host or cells: rat forebrain synaptic plasma membranes, male Sprague Dawley, 30-45 days old (animals from Sasco, St. Charles Mo.)
Description: (§1) [^3 H]Glycine binding was performed using Triton ×-100 washed synaptic plasma membranes (SPM) prepared from rat forebrain (30-45 day old, male Sprague Dawley; Sasco, St. Charles Mo.). The assay was initiated by the addition of 0.2-0.4 mg of SPM to an incubation containing 10 nM [^3 H]glycine (43.5 Ci/mmole; New England Nuclear, Boston Mass.), and various concentrations of the appropriate test compounds in a total volume of 1 ml, with all additions made in […] Tris/acetate, pH 7.4. Following a 10 min incubation at 2° C. the bound radioactivity was separated from the free by either centrifugation (12000 g for 25 min at 4° C.) or vacuum filtration through Whatman GF/B filters using a Brandel MB-18 Harvester. The Kd and Bmax values for [^3 H]glycine were similar using either separation technique. The radioactivity associated with the SPM was quantitated using liquid scintillation spectrometry. Ki values for the inhibition of [ ^3 H]glycine binding were determined using logit-log analysis, with nonspecific binding determined using 100 μM glycine. Modulation of [^3 H]TCP binding was performed using Triton ×-100 (0.04% v/v) treated rat SPM that had been extensively washed. Assay incubations were at 25° C. for 60 min and contained 5.0 nM [^3 H]TCP, and various concentrations of the test compound in 5 mM Tris/HCl, pH 7.4. The assay was stopped by rapid filtration, using a Brandel MB-48 Harvester, thru Whatman GF/B filters treated with 0.05% polyethylenimine and the samples washed four times with 2.0 mls cold buffer. Radioactivity associated with the filter was determined by liquid scintillation spectrometry as described above. Nonspecific binding was defined using 60 μM PCP.

NMDA receptor = biological target: T2, NMDA receptor (Rattus norvegicus, UniProt P35439); assay: Modulation of [3H]TCP binding, Triton-treated, extensively washed rat SPM (functional analysis, agonist/antagonist character); format: biochemical; conditions: 1 h, 5.0 nM [3H]TCP, 25° C., 60 min, pH 7.4, % of maximal glycine stimulation, read-out: AG/ANTAG [3H]TCP % STIM
T2 construct: treated rat SPM that had been extensively washed; from tissue; host or cells: rat synaptic plasma membranes, Triton-treated and extensively washed
Description: as §1
*The stimulation of [^3 H]TCP binding (% STIM) was expressed as a […]

[2] = tested on: bacterial methionine-γ-lyase; conditions: M. Johnson et al., Biochemistry, 20, 4325-4333 (1981); cited from earlier work
[3] = tested on: L-aspartate aminotransferase enzyme; conditions: R. R. Rando, Nature, 250, 587-588 (1974); cited from earlier work
[4] = tested on: strychnine-insensitive glycine receptor; conditions: structure-activity relationships, literature; cited from earlier work
neurons = conditions: J. W. Olney (1969); J. W. Olney et al. (1971); cited from earlier work
human subjects = conditions: B. Saletu et al (1986); cited from earlier work
[5] = following milacemide administration; cited from earlier work

C/C=C/[C@H](N)C(=O)O (stereo in doubt) [Compound 1, trans-L-2-amino-pent-3-enoic acid]
Ki [1]: 7.2 µM
Emax at 40 µM (NMDA receptor; CONC 40 (μ)): 51%
inhibition of bacterial methionine-γ-lyase [2]: inhibition of bacterial methionine-γ-lyase

C/C=C/[C@@H](N)C(=O)O (stereo in doubt) [Compound 2, trans-D-2-amino-pent-3-enoic acid]
Ki [1]: 4.8 µM

CCC/C=C/[C@H](N)C(=O)O (stereo in doubt) [Compound 3, trans-L-2-amino-hept-3-enoic acid]
Ki [1]: 4.9 µM
Emax at 12 µM (NMDA receptor; CONC 12 (μ)): 66%

CCC/C=C/[C@@H](N)C(=O)O (stereo in doubt) [Compound 4, trans-D-2-amino-hept-3-enoic acid]
Ki [1]: 1.8 µM

CCCCCC/C=C/[C@H](N)C(=O)O (stereo in doubt) [Compound 5, trans-L-2-amino-dec-3-enoic acid]
Ki [1]: 0.95 µM
Emax at 30 µM (NMDA receptor; CONC 30 (μ)): 78%

CCCCCC/C=C/[C@@H](N)C(=O)O (stereo in doubt) [Compound 6, trans-D-2-amino-dec-3-enoic acid]
Ki [1]: 55 µM
Emax at 100 µM (NMDA receptor; CONC 100 (μ)): 48%

N[C@H](/C=C/CCO)C(=O)O (stereo in doubt) [Compound 7, trans-D-2-amino--6-hydroxy-hex-3-enoic acid]
Ki [1]: 0.28 µM
Emax at 6 µM (NMDA receptor; CONC 6 (μ)): 67%

N[C@@H](/C=C/CCO)C(=O)O (stereo in doubt) [Compound 8, trans-L-2-amino-6-hydroxy-hex-3-enoic acid]
Ki [1]: 0.77 µM

CO/C=C/[C@H](N)C(=O)O (stereo in doubt) [L-2-amino-4-methoxy-trans-3-butenoic acid]
inhibition of L-aspartate aminotransferase [3]: irreversible inhibitor

C[C@@H](N)C(=O)O [D-alanine]
affinity at strychnine-insensitive glycine receptor (in words) [4]: highest affinities

N[C@H](CO)C(=O)O [D-serine]
affinity at strychnine-insensitive glycine receptor (in words) [4]: highest affinities

N[C@@H](CC(=O)O)C(=O)O [aspartic, aspartic acid]
excitatory and excitotoxic properties (neurons): both excitatory and excitotoxic properties

N[C@@H](CCC(=O)O)C(=O)O [glutamic acid]
excitatory and excitotoxic properties (neurons): both excitatory and excitotoxic properties

CCCCCNCC(N)=O [milacemide]
memory-enhancing capabilities (human subjects): memory-enhancing capabilities
brain glycine content [5]: increase in brain glycine content
